Like-named read-outs stand apart in the source and are kept apart here.
Columns and labels:
[1] = tested on: PDX tumors from CRC patients #1 and #2; test: CRC PDX models; format: in vivo, nude mice; conditions: 30 mg/kg intraperitoneally every other day for 12 days, two PDX models
Procedure: All animal studies were performed following federal and institutional guidelines approved by the Institutional Animal Care and Use Committee at Shanghai Jiao-Tong University School of Medicine. To establish the CDXs, HCT116 cells (1 × 10^6) suspended in 100 μL of 1× PBS were injected subcutaneously into the flanks of six-week-old male BALB/c nude mice. To establish the PDXs, primary tumors resected from two independent CRC patients (patient #1 and #2) were collected in the culture medium. The necrotic and supporting tissues were carefully removed using sterilized surgical blades. The gross tumor was cut into fragments (2-3 mm in diameter) and inoculated subcutaneously into the flanks of nude mice. The mice were monitored daily, and caliper measurements began when tumors became visible. The tumor volume was monitored every other day via calipers. The tumor volume was calculated using the following formula: (L × W ^2) / 2, where L and W refer to the tumor diameter along the longitudinal and transverse axes, respectively. When the mean tumor volume was approximately 100 to 250 mm^3, the mice were randomly grouped (n = 6 per group for CDXs, n = 8 per group for PDXs), and treatment was initiated. […] After treatment or if meeting the humane endpoint criteria, the mice were sacrificed by CO2 asphyxiation. The tumors were dissected, imaged, and weighed. […]

HCT8 = test: Cell proliferation, CCK-8; format: cell-based; conditions: Homo sapiens, HCT-8; HCT8, CCK8, 48 h
Procedure: (§1) Cell proliferation was evaluated using a Cell Counting Kit-8 (CCK-8) (Dojindo) following the manufacturer's instructions. Briefly, CRC cells were plated in 96-well plates at a density of 5 × 10^3 cells per well. […] Cells treated with DMSO were used as the […] controls, and the final DMSO concentration in the medium was 0.1%. After 48 h of treatment, 10 μL of CCK-8 solution was added to every well and incubated for 1 h at 37 °C. Then, a microplate reader (Synergy H4 Hybrid Reader, BioTek) was used to measure the absorbance of the solvent at 450 nm. The background of drug and culture medium has been deducted in each well. The relative cell proliferation of each treatment group was expressed as the percentage change relative to the […] control group. Each data point is the mean ± s.d. of two or three independent experiments.

HCT116 = test: Cell proliferation, CCK-8; format: cell-based; conditions: Homo sapiens, HCT-116
Procedure: as §1

SKCO1 = test: Cell proliferation, CCK-8; format: cell-based; conditions: Homo sapiens, SK-CO-1; SKCO1, CCK8, 48 h
Procedure: as §1

SW1116 = test: Cell proliferation, CCK-8; format: cell-based; conditions: Homo sapiens, SW 1116; SW1116, CCK8, 48 h
Procedure: as §1

Colo201 = test: Cell proliferation, CCK-8; format: cell-based; conditions: Homo sapiens, COLO 201; Colo201, CCK8, 48 h
Procedure: as §1

LS174T = test: Cell proliferation, CCK-8; format: cell-based; conditions: Homo sapiens, CCK8, 48 h
Procedure: as §1

SW48 = test: Cell proliferation, CCK-8; format: cell-based; conditions: Homo sapiens; SW48, CCK8, 48 h
Procedure: as §1

Colo205 = test: Cell proliferation, CCK-8; format: cell-based; conditions: Homo sapiens, COLO 205; Colo205, CCK8, 48 h
Procedure: as §1

LOVO = test: Cell proliferation, CCK-8; format: cell-based; conditions: Homo sapiens, CCK8, 48 h
Procedure: as §1

LS1034 = test: Cell proliferation, CCK-8; format: cell-based; conditions: Homo sapiens, LS-1034; LS1034, CCK8, 48 h
Procedure: as §1

SW1417 = test: Cell proliferation, CCK-8; format: cell-based; conditions: Homo sapiens; SW1417, CCK8, 48 h
Procedure: as §1

Caco2 = test: Cell proliferation, CCK-8; format: cell-based; conditions: Homo sapiens, Caco-2; Caco2, CCK8, 48 h
Procedure: as §1

LS123 = test: Cell proliferation, CCK-8; format: cell-based; conditions: Homo sapiens, LS-123; LS123, CCK8, 48 h
Procedure: as §1

Colo320DM = test: Cell proliferation, CCK-8; format: cell-based; conditions: Homo sapiens, COLO 320DM, CCK8, 48 h
Procedure: as §1

SW620 = test: Cell proliferation, CCK-8; format: cell-based; conditions: Homo sapiens, SW-620; SW620, CCK8, 48 h
Procedure: as §1

SIRT6 = SIRT6 (Homo sapiens, UniProt Q8N6T7); test: Histone deacetylase enzyme selectivity assay; format: biochemical; parameters: endogenous in cells; host or cells: HEK293T; conditions: SIRT6, selectivity panel
Procedure: Then, the reaction was initiated by adding the fluorogenic HDAC acetylated substrate (also adding NAD^+ in the deacetylase assays of sirtuins) at the indicated concentrations at room temperature or 37 °C for the indicated durations. After incubation, the reaction was stopped with an equal volume of buffer containing 1 mL of HDAC developer (peptidase activity, BPS Bioscience); 20 µM trichostatin was also included for the termination in the deacetylase assays of HDAC1-11. After the indicated time, fluorescence intensity was measured using a microplate reader (Envision, Perkin Elmer) at excitation and emission wavelengths of 355 nm and 460 nm, respectively. We also developed deacetylase assays for SIRT5 and SIRT7, which were not available at CEREP. For SIRT5 deacetylation assay, HEK293T cells were transiently transfected with empty vector or pcDNA3.1-SIRT5-HA (10 μg/10 cm plate) using Neofect™ DNA transfection reagent. 48 h after transfection, cells were lysed in ice-cold NP-40 buffer (50 mM Tris-HCl [pH 8.0], 150 mM NaCl, 1% NP-40, and protease inhibitor cocktail) with rotation at 4 °C for 30 min. A particle-free supernatant solution was obtained by centrifugation at 13,600 × g for 15 min at 4 °C. […] The data points at various concentrations were expressed as percent inhibition or activation effects of the control activity. […]

Chain of SIRT6 (Q8N6T7 whole entry): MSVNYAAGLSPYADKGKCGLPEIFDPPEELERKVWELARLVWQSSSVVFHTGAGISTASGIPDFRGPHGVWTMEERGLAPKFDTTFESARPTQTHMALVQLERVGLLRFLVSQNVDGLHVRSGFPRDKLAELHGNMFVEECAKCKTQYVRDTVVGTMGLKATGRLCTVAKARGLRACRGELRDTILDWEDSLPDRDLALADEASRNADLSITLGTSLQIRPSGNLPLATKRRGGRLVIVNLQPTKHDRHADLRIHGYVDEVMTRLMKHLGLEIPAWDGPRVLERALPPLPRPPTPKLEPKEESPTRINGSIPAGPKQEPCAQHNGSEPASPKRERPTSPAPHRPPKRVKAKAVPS

`Cc1cc(F)c(Br)cc1NS(=O)(=O)c1ccc(NS(=O)(=O)c2cc(Cl)cc(Cl)c2)cc1CN1CCOC[C@H]1C` [MDL-811] was tested, and the tumor growth [1] was “strong tumor regression in both PDX models”, the IC50 (HCT8) was 20.1 ± 2 µM and the IC50 (HCT116; HCT116, CCK8, 48 h, read-out: IC50 ± s.d.) was 4.7 ± 0.2 µM. It also gave an IC50 (HCT116; HCT116, CCK-8, 48 h, Figure S6, mean ± s.e.m. of three experiments, read-out: IC50) of 4.8 ± 0.2 µM, an IC50 (SKCO1) of 12.1 ± 0.1 µM and an IC50 (SW1116) of 5.7 ± 0.3 µM. The IC50 (Colo201) was 20.3 ± 1.4 µM, the IC50 (LS174T) was 23.8 ± 2 µM and the IC50 (SW48) was 10.8 ± 1.5 µM. For the same compound, the IC50 (Colo205) was 38.1 ± 4.4 µM, the IC50 (LOVO) was 7.8 ± 0.2 µM and the IC50 (LS1034) was 31.9 ± 0.7 µM. The IC50 (SW1417) was 15.1 ± 1.9 µM, the IC50 (Caco2) was 28.7 ± 1.7 µM and the IC50 (LS123) was 19.8 ± 0.5 µM. The IC50 (Colo320DM) was 33.2 ± 0.9 µM, the IC50 (SW620) was 16.7 ± 1.4 µM and the Effect (SIRT6) was “Activation”.
